Like-named read-outs stand apart in the source and are kept apart here. Where no end group is shown, it is not given here.
Legend:
Assay in all cases: Direct-binding FRET assay
ATF4 = target: T1, ATF4 (Homo sapiens, UniProt P18848); conditions: mean or single, read-out: Kd
T1 construct: made in house
T1 sequence (P18848 278-341 limits assumed): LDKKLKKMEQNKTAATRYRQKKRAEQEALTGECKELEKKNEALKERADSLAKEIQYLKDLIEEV
Procedure: (§1) The direct binding assay was performed manually in 384-well plates and is similar to a previously described assay. Wells were filled with 20 μL of 1 mM TCEP-HCl. A 4 μM stock of acceptor protein was made fresh in 1 mM TCEP-HCl, and 20 μL was titrated in 2-fold dilutions over the wells. […] The direct-binding FRET data were fit as previously described. Briefly, the Kd of the designed peptide homodimer was experimentally determined and used with previously determined target homodimer Kd values to determine the heterodimer Kd. The homodimer Kd values used for the human bZIPs were from; experiments done by […] et al. used the same protein constructs for the human bZIP proteins, the same buffer conditions, and the same assay. The fitting used a system of ordinary differential equations to describe the concentrations of homo and heterodimers formed by the donor (D) and acceptor (A) as a function of the heterodimer Kd. MATLAB was used to simulate the binding experiment for different Kd values, and the value that gave the best agreement between simulation and experiment was assigned. A minimum 15% change in the donor fluorescence upon titrating the acceptor peptide from 0 to 1000 nM was required for a fit to be attempted. If this minimum was not met, the interaction was classified as “NS” for no signal change. […] For such curves, we removed the first five points and re-fit the data.

XBP1 = target: T2, XBP1 (Homo sapiens, UniProt P17861); conditions: 23°C, N-terminal rhodamine design, read-out: Kd
T2 construct: made in house
T2 sequence (P17861 70-133 limits assumed): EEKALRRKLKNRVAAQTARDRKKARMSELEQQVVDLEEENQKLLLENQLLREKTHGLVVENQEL
Procedure: as §1

CREB1 = target: T3, CREB1 (Homo sapiens, UniProt P16220); conditions: mean or single, read-out: Kd
T3 construct: made in house
T3 sequence (P16220 269-327 limits assumed): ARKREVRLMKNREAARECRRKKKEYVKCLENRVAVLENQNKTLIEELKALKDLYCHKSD
Procedure: as §1

NFE2L3 = target: T4, NFE2L3 (Homo sapiens, UniProt Q9Y4A8); conditions: mean or single, read-out: Kd
T4 construct: made in house
T4 sequence (Q9Y4A8 578-641 limits assumed): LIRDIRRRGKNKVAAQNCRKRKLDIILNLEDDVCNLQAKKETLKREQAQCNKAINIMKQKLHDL
Procedure: as §1

ATF3 = target: T5, ATF3 (Homo sapiens, UniProt P18847); conditions: read-out: Kd
T5 construct: made in house
T5 sequence (P18847 86-149 limits assumed): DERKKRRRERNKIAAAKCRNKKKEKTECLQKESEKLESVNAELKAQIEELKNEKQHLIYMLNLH
Procedure: as §1

MAFF = target: T6, MAFF (Homo sapiens, UniProt Q9ULX9); conditions: read-out: Kd
T6 construct: made in house
T6 sequence (Q9ULX9 51-114 limits assumed): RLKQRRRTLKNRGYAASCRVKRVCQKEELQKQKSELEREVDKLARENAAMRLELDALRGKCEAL
Procedure: as §1

NFE2 = target: T7, NFE2 (Homo sapiens, UniProt Q16621); conditions: read-out: Kd
T7 construct: made in house
T7 sequence (Q16621 266-329 limits assumed): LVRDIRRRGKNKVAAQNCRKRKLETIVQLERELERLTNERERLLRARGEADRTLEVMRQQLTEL
Procedure: as §1

FOS = FOS (Homo sapiens, UniProt P01100); set-up: made in house; conditions: read-out: Kd
Sequence of FOS (P01100 137-200 limits assumed): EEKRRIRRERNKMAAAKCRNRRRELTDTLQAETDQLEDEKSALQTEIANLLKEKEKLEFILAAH
Procedure: as §1

ATF6B = ATF6B (Homo sapiens, UniProt Q99941); set-up: made in house; conditions: read-out: Kd
Sequence of ATF6B (Q99941 325-388 limits assumed): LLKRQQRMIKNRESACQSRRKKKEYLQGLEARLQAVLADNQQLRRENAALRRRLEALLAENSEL
Procedure: as §1

JUN = JUN (Homo sapiens, UniProt P05412); set-up: made in house; conditions: mean or single, read-out: Kd
Sequence of JUN (P05412 252-315 limits assumed): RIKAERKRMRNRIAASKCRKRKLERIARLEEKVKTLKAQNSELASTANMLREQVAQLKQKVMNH
Procedure: as §1

MAFG = MAFG (Homo sapiens, UniProt O15525); set-up: made in house; conditions: read-out: Kd
Sequence of MAFG (O15525 51-114 limits assumed): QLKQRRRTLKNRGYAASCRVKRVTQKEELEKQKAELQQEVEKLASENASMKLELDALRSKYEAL
Procedure: as §1

[1] = 4°C, C-terminal rhodamine design
[2] = 4°C, N-terminal rhodamine design
[3] = 23°C, C-terminal rhodamine design
[4] = 23°C, N-terminal rhodamine design
[5] = 37°C, C-terminal rhodamine design
[6] = 37°C, N-terminal rhodamine design
[7] = 4°C, C-terminal fluorescein design as donor, TAMRA target titrated
[8] = 4°C, C-terminal rhodamine design, mean or single
[9] = 4°C, N-terminal rhodamine design, mean or single
[10] = 23°C, C-terminal fluorescein design as donor, TAMRA target titrated
[11] = 23°C, C-terminal rhodamine design, mean or single
[12] = 23°C, N-terminal rhodamine design, mean or single
[13] = 37°C, C-terminal fluorescein design as donor, TAMRA target titrated
[14] = 37°C, C-terminal rhodamine design, mean or single
[15] = 37°C, N-terminal rhodamine design, mean or single

- Kd (ATF4; [1]): > 1000 nM
- Kd (ATF4; [2]): > 1000 nM
- Kd (ATF4; [3]): > 1000 nM
- Kd (ATF4; [4]): > 1000 nM
- Kd (ATF4; [5]): > 1000 nM
- Kd (ATF4; [6]): > 1000 nM
- Kd (XBP1; repeat 1): > 1000 nM
- Kd (XBP1; repeat 2): > 1000 nM
- Kd (XBP1; repeat 3): > 1000 nM
- Kd (CREB1; [1]): > 5000 nM
- Kd (CREB1; [2]): > 1000 nM
- Kd (CREB1; [3]): > 1000 nM
- Kd (CREB1; [4]): > 1000 nM
- Kd (CREB1; [5]): > 1000 nM
- Kd (CREB1; [6]): > 1000 nM
- Kd (NFE2L3; [1]): > 1000 nM
- Kd (NFE2L3; [2]): > 1000 nM
- Kd (NFE2L3; [3]): > 1000 nM
- Kd (NFE2L3; [4]): > 1000 nM
- Kd (NFE2L3; [5]): > 5000 nM
- Kd (NFE2L3; [6]): > 1000 nM
- Kd (ATF3; [7]): > 1000 nM
- Kd (ATF3; [8]): > 1000 nM
- Kd (ATF3; [9]): > 1000 nM
- Kd (ATF3; [10]): > 1000 nM
- Kd (ATF3; [11]): > 1000 nM
- Kd (ATF3; [12]): > 1000 nM
- Kd (ATF3; [13]): > 1000 nM
- Kd (ATF3; [14]): > 1000 nM
- Kd (ATF3; [15]): > 1000 nM
- Kd (MAFF; [7]): > 1000 nM
- Kd (MAFF; [8]): > 1000 nM
- Kd (MAFF; [9]): > 1000 nM
- Kd (MAFF; [10]): > 1000 nM
- Kd (MAFF; [11]): > 1000 nM
- Kd (MAFF; [12]): > 1000 nM
- Kd (MAFF; [13]): > 1000 nM
- Kd (MAFF; [14]): > 1000 nM
- Kd (MAFF; [15]): > 1000 nM
- Kd (NFE2; [7]): > 1000 nM
- Kd (NFE2; [8]): > 1000 nM
- Kd (NFE2; [9]): > 1000 nM
- Kd (NFE2; [10]): > 1000 nM
- Kd (NFE2; [11]): > 1000 nM
- Kd (NFE2; [12]): > 1000 nM
- Kd (NFE2; [13]): > 1000 nM
- Kd (NFE2; [14]): > 1000 nM
- Kd (NFE2; [15]): > 1000 nM
- Kd (FOS; [7]): > 1000 nM
- Kd (FOS; [8]): > 1000 nM
- Kd (FOS; [9]): > 1000 nM
- Kd (FOS; [10]): > 1000 nM
- Kd (FOS; [11]): > 1000 nM
- Kd (FOS; [12]): > 1000 nM
- Kd (FOS; [13]): > 1000 nM
- Kd (FOS; [14]): > 1000 nM
- Kd (FOS; [15]): > 1000 nM
- Kd (ATF6B; [7]): > 1000 nM
- Kd (ATF6B; 4°C, C-terminal rhodamine design, repeat 1): 200 to 1000 nM
- Kd (ATF6B; 4°C, C-terminal rhodamine design, repeat 2): > 1000 nM
- Kd (ATF6B; [10]): > 1000 nM
- Kd (ATF6B; [12]): > 1000 nM
- Kd (ATF6B; [13]): > 1000 nM
- Kd (ATF6B; [14]): > 1000 nM
- Kd (ATF6B; 37°C, C-terminal rhodamine design, repeat 1): > 1000 nM
- Kd (ATF6B; 37°C, C-terminal rhodamine design, repeat 2): > 1000 nM
- Kd (ATF6B; [15]): > 1000 nM
- Kd (JUN; [1]): > 1000 nM
- Kd (JUN; [2]): > 1000 nM
- Kd (JUN; [3]): > 1000 nM
- Kd (JUN; [4]): > 1000 nM
- Kd (JUN; [5]): > 1000 nM
- Kd (JUN; [6]): > 1000 nM
- Kd (MAFG; [7]): > 1000 nM
- Kd (MAFG; [8]): > 1000 nM
- Kd (MAFG; [9]): > 1000 nM
- Kd (MAFG; [10]): > 1000 nM
- Kd (MAFG; [11]): > 1000 nM
- Kd (MAFG; [12]): > 1000 nM
- Kd (MAFG; [13]): > 1000 nM
- Kd (MAFG; [14]): > 1000 nM
- Kd (MAFG; [15]): > 1000 nM
Sequence: EREAQLENRVAHLKEKNQELKAQNLHLKEALSEAQNRNQELKNDA [XBP1-d1]
